Data from US7335373B2, “Biocidal siloxane coating material containing N-halogenated amine and amide functional groups” (Auburn University, priority 2003, dated 2008).

What was measured:
[1] = Oxidative chlorine loading by iodometric/thiosulfate titration; conditions: cotton fabric treated directly with 2% by weight TTDD, chlorinated in 10 vol % bleach at pH 8 for 30 minutes
[2] = after 5 washing cycles

CC1(C)CC2(CC(C)(C)N1)NC(=O)NC2=O [TTDD]
Cl^+ loading [1]: 0.57% | titratable chlorine after washing ([2]; TTDD-treated chlorinated cotton fabric): no titratable chlorine | rechlorination after washing ([2]; TTDD-treated cotton fabric): could not be rechlorinated
